According to patent publication US20250304620A1, “ANTIMICROBIAL PEPTIDE AND APPLICATION THEREOF” (priority 2023, published 2025):
In brackets after ≈: the same amount, converted by molar mass. Non-standard residues stand in square brackets, D forms with d. Residues, ends and D or L forms follow the SMILES beside them. Phe(4-Br) = N[C@@H](Cc1ccc(Br)cc1)C(=O)O; Phe(4-Me) = Cc1ccc(C[C@H](N)C(=O)O)cc1; 2Nal = N[C@@H](Cc1ccc2ccccc2c1)C(=O)O; hLeu = CC(C)CC[C@H](N)C(=O)O; Nle = CCCC[C@H](N)C(=O)O; Nva = CCC[C@H](N)C(=O)O

Columns and labels:
[1] = tested on: Staphylococcus aureus (NRS 384); experiment: microbe, parasite or virus in culture; assay type: cell-based; conditions: NRS 384
Text: According to the Standards of Clinical and Laboratory Standards Institute (CLSI) of the USA for antimicrobial drug susceptibility test operation standards, a micronutrient serial twofold dilution method was used to determine minimum inhibitory concentrations (MICs) of all 60 peptides (S/N: LV-1˜LV-60) against Staphylococcus aureus (NRS 384). The experiment was repeated 5 times in parallel. […] An antibacterial drug Levofloxacin and an AMP Cbf-K16 (sequence of Cbf-K16: […]) were used as positive controls to evaluate the antibacterial effect of the antimicrobial peptides on Staphylococcus aureus (NRS 384).

rabbit red blood cells = assay type: cell-based; conditions: red cells of rabbit, 1 h
Experimental: Fresh rabbit blood ([…]) was collected and centrifuged at 500 g for 5 min, a supernatant was discarded, and red blood cells were repeatedly washed with phosphate-buffered saline (PBS, 0.01 M, pH 7.4) until the supernatant was clear. The red blood cells (RBCs) were resuspended to 10 mL, and diluted 25-fold with PBS (0.01 M, pH 7.4) to prepare a red blood cell suspension with a concentration of about 2×10^8 RBC/mL. The AMPs were subjected to gradient dilution with normal saline (0.85%, w/v, NaCl) according to a multiple dilution method, final concentrations of the SMPs were 1.95, 3.9, 7.8, 15.6, 31.3, 62.5, 125, 250, 500, 1000, and 2000 μg/mL. 100 μl of polypeptide solution was taken and added to a 96-well plate with 5 replicates for each concentration; 100 μl of rabbit blood with a red blood cell count of about 2×10^8 RBC/mL was then added to each well, the plate was incubated at 37° C. for 1 h, centrifuged at 500 g for 5 min, 100 μl of supernatant was taken and transferred to a new 96-well plate, and an optical density (OD) at a wavelength of 541 nm was measured using a microplate reader. Triton X-100 (10 mg/mL as a starting concentration, two-fold gradient dilution) was used as a positive control group. A hemolysis rate was calculated using the following formula: Hemolysis rate (%)=[(OD541 of experimental group-OD541 of negative control group)/(OD541 of positive control group−OD541 of negative control group)]×100% Specific results of the hemolysis test are shown in Table 6. Minimum hemolytic concentration (MHC): a lowest drug concentration that can cause 10% hemolysis.

Compound | MIC against Staphylococcus aureus (NRS 384) [1] | MHC (minimum hemolytic concentration, lowest concentration causing 10% hemolysis) (rabbit red blood cells)
CC(=O)N[C@@H](CCCCN)C(=O)N[C@@H](CCCCN)C(=O)N[C@@H](CC(C)C)C(=O)N[C@@H](CC(C)C)C(=O)N[C@@H](Cc1ccc(Br)cc1)C(=O)N[C@@H](CCCNC(=N)N)C(=O)N[C@@H](CC(C)C)C(=O)N[C@@H](CCCCN)C(=O)N[C@@H](Cc1ccc(Br)cc1)C(=O)N[C@@H](CCCNC(=N)N)C(=O)N[C@@H](CCCCN)C(N)=O [LV-40] (Ac-KKLL[Phe(4-Br)]RLK[Phe(4-Br)]RK-NH2) | 4 µg/mL (≈ 2.39 µM) | >1000 µg/mL
CC(=O)N[C@@H](CCCNC(=N)N)C(=O)N[C@@H](CCCCN)C(=O)N[C@@H](CC(C)C)C(=O)N[C@@H](CC(C)C)C(=O)N[C@@H](Cc1ccc(C)cc1)C(=O)N[C@@H](CCCCN)C(=O)N[C@@H](CC(C)C)C(=O)N[C@@H](CCCCN)C(=O)N[C@@H](Cc1ccc(C)cc1)C(=O)N[C@@H](CCCCN)C(=O)N[C@@H](CCCNC(=N)N)C(N)=O [LV-41] (Ac-RKLL[Phe(4-Me)]KLK[Phe(4-Me)]KR-NH2) | 4 µg/mL (≈ 2.59 µM) | >1000 µg/mL
CC(=O)N[C@@H](CCCNC(=N)N)C(=O)N[C@@H](CCCCN)C(=O)N[C@@H](C)C(=O)N[C@@H](C)C(=O)N[C@@H](Cc1ccc2ccccc2c1)C(=O)N[C@@H](CCCNC(=N)N)C(=O)N[C@@H](C)C(=O)N[C@@H](CCCCN)C(=O)N[C@@H](Cc1ccc2ccccc2c1)C(=O)N[C@@H](CCCNC(=N)N)C(=O)N[C@@H](CCCCN)C(N)=O [LV-45] (Ac-RKAA[2Nal]RAK[2Nal]RK-NH2) | 2 µg/mL (≈ 1.32 µM) | >1000 µg/mL
CC(=O)N[C@@H](CCCNC(=N)N)C(=O)N[C@@H](CCCCN)C(=O)N[C@H](C(=O)N[C@H](C(=O)N[C@@H](Cc1ccc2ccccc2c1)C(=O)N[C@@H](CCCNC(=N)N)C(=O)N[C@H](C(=O)N[C@@H](CCCCN)C(=O)N[C@@H](Cc1ccc2ccccc2c1)C(=O)N[C@@H](CCCNC(=N)N)C(=O)N[C@@H](CCCCN)C(N)=O)C(C)C)C(C)C)C(C)C [LV-46] (Ac-RKVV[2Nal]RVK[2Nal]RK-NH2) | 4 µg/mL (≈ 2.49 µM) | >1000 µg/mL

Further lines, with some results ahead:

MIC against Staphylococcus aureus (NRS 384) [1] | Compound | MHC (minimum hemolytic concentration, lowest concentration causing 10% hemolysis) (rabbit red blood cells)
8 µg/mL (≈ 4.86 µM) | CCCC[C@H](NC(=O)[C@H](CCCCN)NC(=O)[C@H](CCCNC(=N)N)NC(C)=O)C(=O)N[C@@H](CCCC)C(=O)N[C@@H](Cc1ccc2ccccc2c1)C(=O)N[C@@H](CCCNC(=N)N)C(=O)N[C@@H](CCCC)C(=O)N[C@@H](CCCCN)C(=O)N[C@@H](Cc1ccc2ccccc2c1)C(=O)N[C@@H](CCCNC(=N)N)C(=O)N[C@@H](CCCCN)C(N)=O [LV-42] (Ac-RK[Nle][Nle][2Nal]R[Nle]K[2Nal]RK-NH2) | >1000 µg/mL
8 µg/mL (≈ 4.99 µM) | CCC[C@H](NC(=O)[C@H](CCCCN)NC(=O)[C@H](CCCNC(=N)N)NC(C)=O)C(=O)N[C@@H](CCC)C(=O)N[C@@H](Cc1ccc2ccccc2c1)C(=O)N[C@@H](CCCNC(=N)N)C(=O)N[C@@H](CCC)C(=O)N[C@@H](CCCCN)C(=O)N[C@@H](Cc1ccc2ccccc2c1)C(=O)N[C@@H](CCCNC(=N)N)C(=O)N[C@@H](CCCCN)C(N)=O [LV-43] (Ac-RK[Nva][Nva][2Nal]R[Nva]K[2Nal]RK-NH2) | >1000 µg/mL
8 µg/mL (≈ 4.74 µM) | CC(=O)N[C@@H](CCCNC(=N)N)C(=O)N[C@@H](CCCCN)C(=O)N[C@@H](CCC(C)C)C(=O)N[C@@H](CCC(C)C)C(=O)N[C@@H](Cc1ccc2ccccc2c1)C(=O)N[C@@H](CCCNC(=N)N)C(=O)N[C@@H](CCC(C)C)C(=O)N[C@@H](CCCCN)C(=O)N[C@@H](Cc1ccc2ccccc2c1)C(=O)N[C@@H](CCCNC(=N)N)C(=O)N[C@@H](CCCCN)C(N)=O [LV-44] (Ac-RK[hLeu][hLeu][2Nal]R[hLeu]K[2Nal]RK-NH2) | >1000 µg/mL
